Results reported in ChEMBL document CHEMBL1201862, “PubChem BioAssay data set” (2004).
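Protocol summary: plate cells (96-well), add compound at 5 concentrations, incubate 48 h, interpolate endpoints linearly. GI50 is the concentration that inhibits growth by half.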 Active and inactive are the calls of the source. No stated cut-off is given here; in the data, active = GI50 up to about 1.1 µM and inactive = higher.

What was measured:
Experiment in all cases: NCI-60 cell line screen, 48 h
[1] = test system: NCI/ADR-RES
[2] = test system: EKVX
[3] = test system: NCI-H522
[4] = test system: OVCAR-8
[5] = test system: IGROV-1
[6] = test system: KM12
[7] = test system: CCRF-CEM
[8] = test system: M14
[9] = test system: HL-60
[10] = test system: PC-3
[11] = test system: SK-MEL-5
[12] = test system: RXF 393
[13] = test system: SK-OV-3
[14] = test system: 786-0
[15] = test system: TK-10
[16] = test system: Malme-3M
[17] = test system: UO-31
[18] = test system: K562
[19] = test system: T47D
[20] = test system: SR

Compound	GI50 [1]	GI50 [2]	GI50 [3]	GI50 [4]	GI50 [5]	GI50 [6]	GI50 [7]	GI50 [8]	GI50 [9]	GI50 [10]	GI50 [11]	GI50 [12]	GI50 [13]	GI50 [14]	GI50 [15]	GI50 [16]	GI50 [17]	GI50 [18]	GI50 [19]	GI50 [20]
N=c1oc2cc(O)ccc2cc1C(=O)Nc1cccc2ccccc12	1.82 µM (inactive)	4.32 µM (inactive)	1.65 µM (inactive)	4.78 µM (inactive)	3.27 µM (inactive)	3.75 µM (inactive)	2.35 µM (inactive)	7 µM (inactive)	2.11 µM (inactive)	3.05 µM (inactive)	4.23 µM (inactive)	4.91 µM (inactive)	6.65 µM (inactive)	3.45 µM (inactive)	2.69 µM (inactive)	0.883 µM (active)	4.7 µM (inactive)	3.33 µM (inactive)	3.5 µM (inactive)	1.67 µM (inactive)
CC(C)NC(=O)CN1CCN(C2=CC(=O)c3c(O)ccc(O)c3C2=O)CC1	3.9 µM (inactive)	19.3 µM (inactive)	18.2 µM (inactive)	9.04 µM (inactive)	14.8 µM (inactive)	16.6 µM (inactive)	8.65 µM (inactive)	9.33 µM (inactive)	2.59 µM (inactive)	17.5 µM (inactive)	2.58 µM (inactive)	17.2 µM (inactive)	26.1 µM (inactive)	16.4 µM (inactive)	17.1 µM (inactive)	2.22 µM (inactive)	18.3 µM (inactive)	20.6 µM (inactive)	8.69 µM (inactive)	1.57 µM (inactive)
COc1ccc2nc3cc(Cl)ccc3c(Nc3ccc(O)c(CN4CCN(C)CC4)c3)c2c1	2.08 µM (inactive)	1.74 µM (inactive)	1.78 µM (inactive)	1.79 µM (inactive)	1.71 µM (inactive)	1.91 µM (inactive)	0.276 µM (active)	1.99 µM (inactive)	1.95 µM (inactive)	1.67 µM (inactive)	1.73 µM (inactive)	1.69 µM (inactive)	5.79 µM (inactive)	1.5 µM (inactive)	1.97 µM (inactive)	1.79 µM (inactive)	1.9 µM (inactive)	1.59 µM (inactive)	2.09 µM (inactive)	0.676 µM (active)
Nc1ncc2c(n1)-c1ccccc1OC2N1CCCCC1 (stereo not given)	> 100 µM (inactive)	95.1 µM (inactive)	> 100 µM (inactive)	> 100 µM (inactive)	> 100 µM (inactive)	> 100 µM (inactive)	> 100 µM (inactive)	> 100 µM (inactive)	> 100 µM (inactive)	> 100 µM (inactive)	> 100 µM (inactive)	> 100 µM (inactive)	> 100 µM (inactive)	> 100 µM (inactive)	> 100 µM (inactive)		> 100 µM (inactive)		> 100 µM (inactive)	> 100 µM (inactive)
COC(=O)C1=NN2c3ccccc3C(=O)OCCC2C1 (stereo not given)	> 100 µM (inactive)	> 100 µM (inactive)	> 100 µM (inactive)	> 100 µM (inactive)	71.9 µM (inactive)	> 100 µM (inactive)	> 100 µM (inactive)		> 100 µM (inactive)	> 100 µM (inactive)	> 100 µM (inactive)	> 100 µM (inactive)	> 100 µM (inactive)	> 100 µM (inactive)	> 100 µM (inactive)	> 100 µM (inactive)	> 100 µM (inactive)	> 100 µM (inactive)	> 100 µM (inactive)	> 100 µM (inactive)
COc1ccc(C2CC(C)(O)Oc3cc4c(cc32)OCO4)cc1 (stereo not given)	23.3 µM (inactive)	40.2 µM (inactive)	11.2 µM (inactive)	35 µM (inactive)	29.5 µM (inactive)	27.3 µM (inactive)	19.3 µM (inactive)	36 µM (inactive)	17.6 µM (inactive)	18.7 µM (inactive)	25.4 µM (inactive)	0.0855 µM (active)		37.2 µM (inactive)	36.1 µM (inactive)	47.2 µM (inactive)	37.1 µM (inactive)	15.2 µM (inactive)	2.02 µM (inactive)	24.2 µM (inactive)
Cc1nnc(SCc2nc(C#N)c(C#N)nc2CSc2nnc(C)s2)s1	30.6 µM (inactive)	14.7 µM (inactive)	3.34 µM (inactive)	12.9 µM (inactive)	16.8 µM (inactive)	19.3 µM (inactive)	1.98 µM (inactive)	16.6 µM (inactive)	1.79 µM (inactive)	14.8 µM (inactive)	15 µM (inactive)	6.76 µM (inactive)	33.3 µM (inactive)	9.48 µM (inactive)	6.82 µM (inactive)	5.75 µM (inactive)	8.49 µM (inactive)	4.37 µM (inactive)	5.73 µM (inactive)	4.6 µM (inactive)
O=C(/C=C/c1ccc(C(F)(F)F)cc1)c1c([O-])on[n+]1-c1ccccc1	1.78 µM (inactive)	2.24 µM (inactive)		1.92 µM (inactive)	1.86 µM (inactive)	1.83 µM (inactive)	0.108 µM (active)	2.3 µM (inactive)	0.173 µM (active)	3.19 µM (inactive)	2.8 µM (inactive)	1.27 µM (inactive)	14.3 µM (inactive)	0.531 µM (active)	1.65 µM (inactive)	> 100 µM (inactive)	1.91 µM (inactive)	0.395 µM (active)	1.8 µM (inactive)	0.196 µM (active)
S=c1nc(N2CCCCC2)c2cn[nH]c2[nH]1	> 100 µM (inactive)	> 100 µM (inactive)	16.7 µM (inactive)	64.9 µM (inactive)	22.1 µM (inactive)	29.5 µM (inactive)	10.4 µM (inactive)	74 µM (inactive)	19.6 µM (inactive)	59.2 µM (inactive)	1.53 µM (inactive)	91.8 µM (inactive)		88.5 µM (inactive)	39.2 µM (inactive)	64.9 µM (inactive)	23.9 µM (inactive)	29.9 µM (inactive)	59.6 µM (inactive)	14.5 µM (inactive)
CCOC(=O)c1c2ccccc2n2c(=O)n(-c3ccc(OC)cc3)nnc12	31 µM (inactive)	32.1 µM (inactive)		20.6 µM (inactive)	17.5 µM (inactive)	88.1 µM (inactive)		51.1 µM (inactive)	21.1 µM (inactive)	18.2 µM (inactive)	58.5 µM (inactive)	19 µM (inactive)	26.7 µM (inactive)	17 µM (inactive)	46.6 µM (inactive)	30.5 µM (inactive)	29.4 µM (inactive)	25.9 µM (inactive)	24.3 µM (inactive)	38.7 µM (inactive)
CCOc1cc(NC(C)=O)ccc1C(=O)NNS(=O)(=O)c1ccc(Cl)cc1Cl	> 50 µM (inactive)	> 50 µM (inactive)	> 50 µM (inactive)	> 50 µM (inactive)	> 50 µM (inactive)	31.5 µM (inactive)	> 50 µM (inactive)	> 50 µM (inactive)	> 50 µM (inactive)	> 50 µM (inactive)	14.6 µM (inactive)	> 50 µM (inactive)	> 50 µM (inactive)	> 50 µM (inactive)		> 50 µM (inactive)	> 50 µM (inactive)	0.232 µM (active)	> 50 µM (inactive)	13.9 µM (inactive)
Nc1nc(N)c2cc(-c3cc4ccccc4[nH]3)ccc2n1	30.3 µM (inactive)	29 µM (inactive)	17.5 µM (inactive)	32.5 µM (inactive)	15.8 µM (inactive)	17.8 µM (inactive)	35.2 µM (inactive)	17.6 µM (inactive)	19.7 µM (inactive)	26.2 µM (inactive)	15.2 µM (inactive)	24.8 µM (inactive)	45.3 µM (inactive)	22.5 µM (inactive)	17.7 µM (inactive)	16 µM (inactive)	15.7 µM (inactive)		3.48 µM (inactive)	30.2 µM (inactive)
c1ccc(NNN2NC(c3ccccc3)C2c2ccccc2)cc1 (stereo not given)	97.3 µM (inactive)	> 100 µM (inactive)	71.9 µM (inactive)	> 100 µM (inactive)		> 100 µM (inactive)	59.6 µM (inactive)	> 100 µM (inactive)	49.5 µM (inactive)	> 100 µM (inactive)	> 100 µM (inactive)	24.3 µM (inactive)	> 100 µM (inactive)	> 100 µM (inactive)	> 100 µM (inactive)	28.9 µM (inactive)	36.6 µM (inactive)	91.8 µM (inactive)	> 100 µM (inactive)	> 100 µM (inactive)
CC(C)[Si]1(C(C)C)OCC2OC3(CO)C(Oc4nc(=O)ccn43)C2O[Si](C(C)C)(C(C)C)O1 (stereo not given)	17.4 µM (inactive)	17.1 µM (inactive)		14.1 µM (inactive)	17.3 µM (inactive)	13.3 µM (inactive)	5.14 µM (inactive)	14.8 µM (inactive)	6.17 µM (inactive)	5.4 µM (inactive)	13.5 µM (inactive)	5.57 µM (inactive)	20 µM (inactive)	14.6 µM (inactive)	16.6 µM (inactive)		13.9 µM (inactive)	21 µM (inactive)	9.59 µM (inactive)	15.5 µM (inactive)
OC(c1ccc(F)cc1)C(F)(F)c1nc2ccccc2o1 (stereo not given)	51.4 µM (inactive)	> 100 µM (inactive)		51.2 µM (inactive)	> 100 µM (inactive)	44.3 µM (inactive)	> 100 µM (inactive)	> 100 µM (inactive)	> 100 µM (inactive)	> 100 µM (inactive)	50 µM (inactive)	39.4 µM (inactive)	> 100 µM (inactive)	> 100 µM (inactive)	> 100 µM (inactive)		> 100 µM (inactive)	30.8 µM (inactive)	76 µM (inactive)	> 100 µM (inactive)
